The source made the active and inactive calls.
What was measured:
[1] = molecular target: 72 kDa type IV collagenase (Homo sapiens, UniProt P08253); assay: Dose Response validation of uHTS RPN11 inhibitor hits using a MMP-2 Fluorescence assay.; type: functional
[2] = molecular target: 26S proteasome non-ATPase regulatory subunit 14 (Homo sapiens, UniProt O00487); assay: inhibition of proteasome subunit RPN11 – biochemical, fluorescence polarization, uHTS hits, confirmation (AID 602368); type: functional
[3] = molecular target: T1, Sentrin-specific protease 1 (Homo sapiens, UniProt Q9P0U3); assay: Dose response confirmation of small molecule inhibitors of the catalytic domain of the SUMO protease, SENP1 in a FRET assay.; type: functional; conditions: read-out: IC50_Mean
[4] = molecular target: T1, Sentrin-specific protease 1; assay: SENP1 catalytic domain blockers, concentration series – biochemical, kinetic FRET, dose response (AID 651697); type: functional; conditions: read-out: IC50_Mean
[5] = molecular target: Prothrombin (Bos taurus, UniProt P00735); assay: thrombin protease inhibitors – biochemical, fluorescence polarization, uHTS hits, dose response (AID 602369); type: functional
[6] = Fluorescence-based cell-based high throughput dose response assay for inhibitors of the interaction of nucleotide-binding oligomerization domain containing 2 (NOD2) and the receptor-interacting serine-threonine kinase 2 (RIPK2).; type: functional; conditions: Homo sapiens
[7] = molecular target: Glucose-6-phosphate 1-dehydrogenase (Homo sapiens, UniProt P11413); assay: inhibition of Homo sapiens G6PD, dose series – biochemical, fluorescence, selectivity assay for P. falciparum G6PD inhibitor project, dose response (AID 504792); type: functional
[8] = molecular target: Beta Lactamase (Pseudomonas aeruginosa, UniProt Q932Y6); assay: BLA reporter interference, concentration series – BLA reporter cells, FRET fluorescence, artefact control for NOD2-RIPK2 interaction inhibitor project, dose response (AID 651552); type: functional, cell-based
[9] = molecular target: Mitogen-activated protein kinase 10 (Homo sapiens, UniProt P53779); assay: Dose response biochemical screening assay for inhibitors of c-Jun N-Terminal Kinase 3 (JNK3). [Related pubchem assays: 746 ]
[10] = molecular target: T2, Rac GTPase-activating protein 1 (Homo sapiens, UniProt Q9H0H5); assay: blockers of MgcRacGAP-driven Rac1 GTP hydrolysis – biochemical, ADP Hunter fluorescence, primary and confirmatory, confirmation (AID 624330); type: functional
T2 sequence (Q9H0H5 whole entry): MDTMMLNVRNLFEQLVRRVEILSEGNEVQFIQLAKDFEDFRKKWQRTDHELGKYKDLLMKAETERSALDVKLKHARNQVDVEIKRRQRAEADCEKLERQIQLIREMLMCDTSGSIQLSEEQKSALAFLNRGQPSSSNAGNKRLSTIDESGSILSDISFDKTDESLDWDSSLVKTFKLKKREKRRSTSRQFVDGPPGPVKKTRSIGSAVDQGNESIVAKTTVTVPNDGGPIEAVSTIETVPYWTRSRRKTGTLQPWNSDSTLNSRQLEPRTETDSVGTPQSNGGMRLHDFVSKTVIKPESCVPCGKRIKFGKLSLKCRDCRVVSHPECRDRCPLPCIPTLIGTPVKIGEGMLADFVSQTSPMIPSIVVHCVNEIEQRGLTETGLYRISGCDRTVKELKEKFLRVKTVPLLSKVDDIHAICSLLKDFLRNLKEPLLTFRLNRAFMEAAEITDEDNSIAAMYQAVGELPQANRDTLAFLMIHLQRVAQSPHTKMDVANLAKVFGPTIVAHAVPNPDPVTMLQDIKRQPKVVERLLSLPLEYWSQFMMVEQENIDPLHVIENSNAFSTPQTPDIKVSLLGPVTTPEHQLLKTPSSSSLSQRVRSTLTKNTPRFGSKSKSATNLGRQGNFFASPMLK

[11] = molecular target: T3, Voltage-gated N-type calcium channel alpha-1B subunit/Amyloid beta A4 precursor protein-binding family A member 1 (Homo sapiens, UniProt Q00975+Q02410); type: protein assay
[12] = molecular target: Large T antigen (Simian virus 40, UniProt P03070); type: functional, Betapolyomavirus macacae;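 further: Confirmatory-stage PubChem screen for compounds that inhibit SV40 T antigen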
[13] = molecular target: T3, Voltage-gated N-type calcium channel alpha-1B subunit/Amyloid beta A4 precursor protein-binding family A member 1; type: protein assay; remark: listed apart in the source
[14] = molecular target: T4, Short transient receptor potential channel 4 (Mus musculus, UniProt Q9QUQ5); assay: calcium entry via TRPC4 opening agents – cell-based, HEK293 TRPC4/mu-opioid, Fluo-4 calcium, dose response (AID 434937); type: functional
T4 sequence (Q9QUQ5 whole entry): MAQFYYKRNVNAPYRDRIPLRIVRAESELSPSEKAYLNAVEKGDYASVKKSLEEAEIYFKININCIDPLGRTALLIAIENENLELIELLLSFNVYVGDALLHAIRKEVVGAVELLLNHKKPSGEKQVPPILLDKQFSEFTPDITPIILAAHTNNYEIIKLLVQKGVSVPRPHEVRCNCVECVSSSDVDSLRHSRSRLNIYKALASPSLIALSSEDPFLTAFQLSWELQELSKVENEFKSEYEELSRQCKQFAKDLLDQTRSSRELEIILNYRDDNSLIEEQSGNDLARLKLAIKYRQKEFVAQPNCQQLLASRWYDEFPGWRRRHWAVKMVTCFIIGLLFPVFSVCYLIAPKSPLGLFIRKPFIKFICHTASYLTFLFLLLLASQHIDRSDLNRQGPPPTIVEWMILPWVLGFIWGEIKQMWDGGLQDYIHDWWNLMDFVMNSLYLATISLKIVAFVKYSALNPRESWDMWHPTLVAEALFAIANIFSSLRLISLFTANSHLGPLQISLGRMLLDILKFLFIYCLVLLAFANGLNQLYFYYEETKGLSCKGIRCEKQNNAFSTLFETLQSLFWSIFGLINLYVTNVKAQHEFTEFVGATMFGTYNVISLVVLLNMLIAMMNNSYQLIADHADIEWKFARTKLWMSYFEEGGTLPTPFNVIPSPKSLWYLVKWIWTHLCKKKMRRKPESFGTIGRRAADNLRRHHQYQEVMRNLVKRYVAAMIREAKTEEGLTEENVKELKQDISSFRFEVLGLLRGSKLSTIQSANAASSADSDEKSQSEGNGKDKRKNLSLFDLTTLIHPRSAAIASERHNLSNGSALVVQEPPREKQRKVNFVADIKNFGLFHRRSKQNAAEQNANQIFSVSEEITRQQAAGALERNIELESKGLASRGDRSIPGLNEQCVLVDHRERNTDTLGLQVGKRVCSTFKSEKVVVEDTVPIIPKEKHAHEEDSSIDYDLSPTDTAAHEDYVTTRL

[15] = molecular target: Beta-lactamase (Pseudomonas aeruginosa, UniProt Q79MP6);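 further: biochemical dose-response test of metallo-beta-lactamase enzyme inhibition, read out by epi-absorbance; purified recombinant IMP-1 metallo-beta-lactamase with nitrocefin as substrate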
[16] = molecular target: Beta-lactamase (Salmonella choleraesuis (strain SC-B67), UniProt Q5J463)
[17] = molecular target: Mu-type opioid receptor (Homo sapiens, UniProt P35372); type: functional, cell-based;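 further: U2OS cells with beta-arrestin recruitment to OPRM1 by beta-gal complementation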
[18] = molecular target: 5-hydroxytryptamine receptor 2A (Mus musculus, UniProt P35363); type: functional, cell-based;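 further: CHO-K1 cells with tagged receptor and beta-arrestin; agonist potency measured as compound-induced activation of the receptor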
[19] = molecular target: T5, Probable nicotinate-nucleotide adenylyltransferase (Staphylococcus aureus (strain N315), UniProt P65502); type: functional, Staphylococcus aureus subsp. aureus N315; conditions: read-out: IC50_Mean;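 on IC50 Mean: confirmatory dose-response retesting of NadD inhibitor hits first found in an ultra-high-throughput screen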
[20] = molecular target: T5, Probable nicotinate-nucleotide adenylyltransferase; type: functional, Staphylococcus aureus subsp. aureus N315
[21] = molecular target: Eukaryotic translation initiation factor 4E (Mus musculus, UniProt P63073); assay: blockers of eIF4G binding by eIF4E – biochemical, TR-FRET, dose response (AID 855); type: functional;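 further: potency for disrupting eIF4E binding to eIF4GI seen as loss of FRET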
[22] = Counterscreen for IDE inhibitors: Luminescence-based cell-based high throughput dose response assay to identify compounds that are cytotoxic to HEK cells. [Related pubchem assays: 434962 (Primary screen (IDE inhibitors in singlicate)), 449730 (Counterscreen (Cytotoxicity in triplicate)), 435028 (Confirmation (IDE inhibitors in triplicate)) …; type: functional; conditions: HEK293
[23] = molecular target: T6, Methionyl-tRNA synthetase, putative (Trypanosoma brucei brucei, UniProt Q38C91); type: functional, Trypanosoma brucei brucei strain 927/4 GUTat10.1
T6 sequence (Q38C91 whole entry): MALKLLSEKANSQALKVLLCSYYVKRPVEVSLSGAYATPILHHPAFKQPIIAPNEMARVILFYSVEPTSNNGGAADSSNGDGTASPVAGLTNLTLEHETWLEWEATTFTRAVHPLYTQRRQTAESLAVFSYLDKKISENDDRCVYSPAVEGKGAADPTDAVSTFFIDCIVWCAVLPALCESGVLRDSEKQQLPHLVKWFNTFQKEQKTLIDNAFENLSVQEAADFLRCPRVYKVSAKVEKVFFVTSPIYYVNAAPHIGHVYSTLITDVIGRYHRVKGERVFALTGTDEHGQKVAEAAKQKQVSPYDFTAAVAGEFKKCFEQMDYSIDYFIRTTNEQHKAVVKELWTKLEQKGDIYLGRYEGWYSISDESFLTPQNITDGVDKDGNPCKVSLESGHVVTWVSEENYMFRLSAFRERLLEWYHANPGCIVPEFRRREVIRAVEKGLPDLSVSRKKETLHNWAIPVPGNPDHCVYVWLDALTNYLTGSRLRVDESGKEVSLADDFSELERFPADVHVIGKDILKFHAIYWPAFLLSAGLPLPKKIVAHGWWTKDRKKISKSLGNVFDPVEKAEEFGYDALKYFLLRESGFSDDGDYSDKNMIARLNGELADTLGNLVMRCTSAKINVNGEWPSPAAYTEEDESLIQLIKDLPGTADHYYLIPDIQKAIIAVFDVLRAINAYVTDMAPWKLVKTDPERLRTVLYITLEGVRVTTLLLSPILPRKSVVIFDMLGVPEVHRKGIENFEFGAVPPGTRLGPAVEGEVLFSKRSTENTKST

[24] = molecular target: DNA repair and recombination protein RAD54-like (Homo sapiens, UniProt Q92698); assay: RAD54 Holliday junction migration blockers – biochemical, fluorescence, cherry-picked samples, dose series, confirmation (AID 651657); type: functional
[25] = Counterscreen for inhibitors of Trypanosoma brucei methionyl tRNA synthetase (MetRS): Luminescence-based cell-based high throughput dose response assay to identify compounds that are cytotoxic to Jurkat human T lymphocyte cells.; type: functional
[26] = molecular target: T7, Insulin-degrading enzyme (Homo sapiens, UniProt P14735); assay: Dose Response: Fluorescence polarization-based cell-based high throughput dose response assay for inhibitors of insulin-degrading enzyme (IDE). [Related pubchem assays: 434962 (Primary screen (IDE inhibitors in singlicate)), 449730 (Counterscreen (Cytotoxicity in triplicate)), 435028 (Confirmation (IDE inhibitors in triplicate)), 434984 (Summary …; type: functional
T7 sequence (P14735 whole entry): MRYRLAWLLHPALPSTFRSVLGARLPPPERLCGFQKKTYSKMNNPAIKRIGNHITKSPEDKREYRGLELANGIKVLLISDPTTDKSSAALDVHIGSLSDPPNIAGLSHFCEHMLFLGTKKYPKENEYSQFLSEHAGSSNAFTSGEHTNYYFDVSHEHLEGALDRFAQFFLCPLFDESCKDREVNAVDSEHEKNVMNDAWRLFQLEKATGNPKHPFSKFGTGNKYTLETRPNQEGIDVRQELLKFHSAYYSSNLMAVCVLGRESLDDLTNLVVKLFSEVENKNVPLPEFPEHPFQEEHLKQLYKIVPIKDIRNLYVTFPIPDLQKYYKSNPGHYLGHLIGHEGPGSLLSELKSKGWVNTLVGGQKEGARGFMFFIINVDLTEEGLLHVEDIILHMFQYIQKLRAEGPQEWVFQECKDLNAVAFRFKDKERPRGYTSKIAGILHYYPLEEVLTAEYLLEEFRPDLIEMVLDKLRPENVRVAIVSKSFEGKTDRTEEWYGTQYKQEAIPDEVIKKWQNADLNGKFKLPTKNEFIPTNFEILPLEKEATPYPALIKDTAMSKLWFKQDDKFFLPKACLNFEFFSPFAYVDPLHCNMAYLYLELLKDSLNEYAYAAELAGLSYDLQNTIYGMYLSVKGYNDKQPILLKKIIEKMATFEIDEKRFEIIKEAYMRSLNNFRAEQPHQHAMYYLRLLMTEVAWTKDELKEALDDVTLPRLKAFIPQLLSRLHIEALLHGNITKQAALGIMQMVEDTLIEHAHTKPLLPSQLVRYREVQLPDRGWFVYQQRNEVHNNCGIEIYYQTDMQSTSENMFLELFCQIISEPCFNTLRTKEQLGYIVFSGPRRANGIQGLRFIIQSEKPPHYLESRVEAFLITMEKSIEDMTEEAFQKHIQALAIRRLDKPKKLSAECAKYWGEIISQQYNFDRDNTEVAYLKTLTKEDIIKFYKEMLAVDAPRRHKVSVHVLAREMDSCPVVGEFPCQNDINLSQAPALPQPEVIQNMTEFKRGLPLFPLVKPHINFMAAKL

[27] = molecular target: T6, Methionyl-tRNA synthetase, putative; type: functional, Trypanosoma brucei brucei strain 927/4 GUTat10.1; remark: listed apart in the source

T3 sequence (Q00975 whole entry): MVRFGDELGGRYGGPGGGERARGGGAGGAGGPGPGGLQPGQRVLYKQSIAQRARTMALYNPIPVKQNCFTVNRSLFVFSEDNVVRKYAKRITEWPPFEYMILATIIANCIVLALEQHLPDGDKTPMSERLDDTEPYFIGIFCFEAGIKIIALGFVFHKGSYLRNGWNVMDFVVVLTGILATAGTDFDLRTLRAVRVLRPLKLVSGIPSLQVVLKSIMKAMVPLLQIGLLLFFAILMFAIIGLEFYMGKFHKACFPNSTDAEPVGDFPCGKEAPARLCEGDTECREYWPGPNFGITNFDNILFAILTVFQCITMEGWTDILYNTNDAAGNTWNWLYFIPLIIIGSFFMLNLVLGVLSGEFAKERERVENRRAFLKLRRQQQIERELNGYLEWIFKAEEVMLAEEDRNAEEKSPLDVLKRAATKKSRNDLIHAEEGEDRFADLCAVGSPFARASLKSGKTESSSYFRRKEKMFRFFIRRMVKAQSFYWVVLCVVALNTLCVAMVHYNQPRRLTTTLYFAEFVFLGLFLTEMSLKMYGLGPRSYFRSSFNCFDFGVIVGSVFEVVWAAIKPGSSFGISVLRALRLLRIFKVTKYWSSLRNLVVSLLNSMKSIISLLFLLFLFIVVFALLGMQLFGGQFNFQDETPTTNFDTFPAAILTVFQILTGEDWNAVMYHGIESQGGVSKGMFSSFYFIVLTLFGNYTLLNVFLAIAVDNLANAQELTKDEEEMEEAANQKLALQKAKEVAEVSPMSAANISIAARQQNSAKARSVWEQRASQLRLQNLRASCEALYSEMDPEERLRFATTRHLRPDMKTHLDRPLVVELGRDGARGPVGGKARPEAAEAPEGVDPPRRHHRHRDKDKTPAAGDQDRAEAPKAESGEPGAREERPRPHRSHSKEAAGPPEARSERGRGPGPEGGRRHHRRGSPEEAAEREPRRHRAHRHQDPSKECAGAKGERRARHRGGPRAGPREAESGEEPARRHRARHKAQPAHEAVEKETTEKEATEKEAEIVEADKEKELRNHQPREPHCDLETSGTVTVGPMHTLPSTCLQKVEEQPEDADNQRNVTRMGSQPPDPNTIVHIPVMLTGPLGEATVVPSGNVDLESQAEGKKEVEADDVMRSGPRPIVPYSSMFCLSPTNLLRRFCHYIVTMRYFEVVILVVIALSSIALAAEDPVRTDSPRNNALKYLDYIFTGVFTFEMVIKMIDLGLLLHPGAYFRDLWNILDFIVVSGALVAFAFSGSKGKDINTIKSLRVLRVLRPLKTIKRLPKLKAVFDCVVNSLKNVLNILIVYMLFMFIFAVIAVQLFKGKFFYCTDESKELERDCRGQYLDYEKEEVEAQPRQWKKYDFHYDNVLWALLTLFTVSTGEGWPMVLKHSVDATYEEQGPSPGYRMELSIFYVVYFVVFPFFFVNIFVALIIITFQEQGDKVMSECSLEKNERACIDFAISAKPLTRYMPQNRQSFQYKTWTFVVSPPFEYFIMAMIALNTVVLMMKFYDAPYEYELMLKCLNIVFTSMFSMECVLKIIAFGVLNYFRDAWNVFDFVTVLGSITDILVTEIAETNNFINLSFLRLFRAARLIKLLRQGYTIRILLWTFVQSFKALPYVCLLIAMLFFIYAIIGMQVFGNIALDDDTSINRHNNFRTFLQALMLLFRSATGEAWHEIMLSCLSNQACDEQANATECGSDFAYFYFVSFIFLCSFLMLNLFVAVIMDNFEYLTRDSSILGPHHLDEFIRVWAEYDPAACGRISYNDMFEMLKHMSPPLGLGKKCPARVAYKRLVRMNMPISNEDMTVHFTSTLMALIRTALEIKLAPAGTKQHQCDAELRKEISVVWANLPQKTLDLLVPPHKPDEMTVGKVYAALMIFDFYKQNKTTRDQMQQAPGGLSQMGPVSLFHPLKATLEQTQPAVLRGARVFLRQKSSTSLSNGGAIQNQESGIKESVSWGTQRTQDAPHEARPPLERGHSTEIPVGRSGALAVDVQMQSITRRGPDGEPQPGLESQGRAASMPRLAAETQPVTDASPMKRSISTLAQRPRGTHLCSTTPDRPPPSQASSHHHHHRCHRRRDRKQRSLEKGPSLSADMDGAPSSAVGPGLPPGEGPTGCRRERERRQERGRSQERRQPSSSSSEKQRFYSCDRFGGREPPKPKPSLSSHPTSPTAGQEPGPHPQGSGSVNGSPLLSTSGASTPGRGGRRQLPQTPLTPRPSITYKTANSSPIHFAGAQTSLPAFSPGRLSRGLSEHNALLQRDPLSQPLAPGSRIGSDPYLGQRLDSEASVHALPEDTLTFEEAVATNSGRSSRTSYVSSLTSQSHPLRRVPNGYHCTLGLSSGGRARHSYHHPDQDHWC
T3 sequence (Q02410 whole entry): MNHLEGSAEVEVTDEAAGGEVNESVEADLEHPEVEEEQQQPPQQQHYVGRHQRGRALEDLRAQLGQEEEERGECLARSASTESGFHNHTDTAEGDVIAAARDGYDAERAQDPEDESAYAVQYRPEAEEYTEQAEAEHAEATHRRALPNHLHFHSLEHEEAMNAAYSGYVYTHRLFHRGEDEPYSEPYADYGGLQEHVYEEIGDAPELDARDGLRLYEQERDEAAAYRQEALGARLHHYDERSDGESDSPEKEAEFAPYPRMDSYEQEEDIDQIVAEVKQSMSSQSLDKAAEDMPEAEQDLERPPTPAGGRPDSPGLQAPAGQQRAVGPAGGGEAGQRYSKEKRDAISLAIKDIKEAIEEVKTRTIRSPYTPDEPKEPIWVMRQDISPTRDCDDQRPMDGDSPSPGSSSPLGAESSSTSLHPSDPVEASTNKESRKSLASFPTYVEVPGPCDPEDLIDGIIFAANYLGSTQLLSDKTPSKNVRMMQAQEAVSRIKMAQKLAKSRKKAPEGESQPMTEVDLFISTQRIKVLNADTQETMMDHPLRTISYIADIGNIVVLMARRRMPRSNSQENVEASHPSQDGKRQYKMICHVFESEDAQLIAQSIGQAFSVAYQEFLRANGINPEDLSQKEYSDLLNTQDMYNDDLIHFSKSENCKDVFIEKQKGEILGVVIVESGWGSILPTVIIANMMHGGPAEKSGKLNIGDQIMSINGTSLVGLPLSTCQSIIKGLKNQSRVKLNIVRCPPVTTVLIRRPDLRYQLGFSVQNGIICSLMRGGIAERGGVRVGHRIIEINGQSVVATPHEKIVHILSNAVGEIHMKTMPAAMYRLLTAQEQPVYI
T5 sequence (P65502 whole entry): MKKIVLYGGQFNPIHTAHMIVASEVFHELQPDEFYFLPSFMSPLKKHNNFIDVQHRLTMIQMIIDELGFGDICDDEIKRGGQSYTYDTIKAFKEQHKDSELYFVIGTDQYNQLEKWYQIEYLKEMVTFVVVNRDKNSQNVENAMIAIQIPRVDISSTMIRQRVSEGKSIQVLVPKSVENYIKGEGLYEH
T1 sequence (Q9P0U3 whole entry, the tested form may be a part): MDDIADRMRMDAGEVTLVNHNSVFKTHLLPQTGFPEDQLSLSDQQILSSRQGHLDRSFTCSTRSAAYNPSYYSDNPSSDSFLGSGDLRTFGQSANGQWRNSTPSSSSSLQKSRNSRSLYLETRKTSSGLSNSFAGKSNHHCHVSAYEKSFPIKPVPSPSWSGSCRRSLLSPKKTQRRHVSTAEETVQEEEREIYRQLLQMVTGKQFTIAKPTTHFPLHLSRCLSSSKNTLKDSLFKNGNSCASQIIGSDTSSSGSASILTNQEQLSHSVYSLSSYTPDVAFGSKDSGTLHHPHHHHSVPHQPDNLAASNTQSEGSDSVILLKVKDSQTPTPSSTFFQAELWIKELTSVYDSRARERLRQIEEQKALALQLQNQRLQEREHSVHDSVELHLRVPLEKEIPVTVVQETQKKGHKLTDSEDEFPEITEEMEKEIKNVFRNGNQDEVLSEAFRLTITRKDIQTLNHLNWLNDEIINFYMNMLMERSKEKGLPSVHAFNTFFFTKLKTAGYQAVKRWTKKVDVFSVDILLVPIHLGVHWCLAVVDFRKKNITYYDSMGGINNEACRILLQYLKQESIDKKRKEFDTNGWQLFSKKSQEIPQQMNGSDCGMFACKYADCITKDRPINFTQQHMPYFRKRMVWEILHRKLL
Chain of 5-hydroxytryptamine receptor 2A (P35363 whole entry): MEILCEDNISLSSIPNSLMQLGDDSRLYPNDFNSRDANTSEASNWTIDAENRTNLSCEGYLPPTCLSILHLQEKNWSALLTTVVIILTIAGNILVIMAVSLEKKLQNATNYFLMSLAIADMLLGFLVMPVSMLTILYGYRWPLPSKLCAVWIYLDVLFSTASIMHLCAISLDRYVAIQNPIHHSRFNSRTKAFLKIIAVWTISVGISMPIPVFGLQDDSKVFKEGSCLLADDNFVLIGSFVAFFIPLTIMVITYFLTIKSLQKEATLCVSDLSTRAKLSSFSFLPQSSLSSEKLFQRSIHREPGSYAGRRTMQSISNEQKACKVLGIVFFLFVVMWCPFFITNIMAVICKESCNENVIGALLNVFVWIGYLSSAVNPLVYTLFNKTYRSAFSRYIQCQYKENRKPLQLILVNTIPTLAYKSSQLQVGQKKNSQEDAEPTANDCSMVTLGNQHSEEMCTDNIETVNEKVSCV
Chain of Glucose-6-phosphate 1-dehydrogenase (P11413 whole entry): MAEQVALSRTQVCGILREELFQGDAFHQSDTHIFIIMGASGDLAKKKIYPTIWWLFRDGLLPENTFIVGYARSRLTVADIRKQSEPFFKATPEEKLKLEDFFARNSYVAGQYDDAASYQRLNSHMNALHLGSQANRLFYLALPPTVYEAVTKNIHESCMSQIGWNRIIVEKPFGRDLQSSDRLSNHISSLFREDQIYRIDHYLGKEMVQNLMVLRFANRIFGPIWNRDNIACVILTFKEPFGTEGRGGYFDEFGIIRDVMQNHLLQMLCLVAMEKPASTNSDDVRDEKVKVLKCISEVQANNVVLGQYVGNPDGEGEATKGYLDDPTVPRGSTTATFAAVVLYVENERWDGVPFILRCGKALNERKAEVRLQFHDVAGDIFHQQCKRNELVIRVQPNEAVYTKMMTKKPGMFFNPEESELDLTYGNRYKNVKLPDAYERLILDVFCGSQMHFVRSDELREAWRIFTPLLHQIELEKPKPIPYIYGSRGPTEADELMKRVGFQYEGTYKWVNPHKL

## COc1ccc2c(C)cc(SCC(=O)N3CCOCC3)nc2c1
[1]
  IC50: > 100 µM (inactive)
[2]
  IC50: 9.61 µM (active)
[3]
  IC50: 7.01 µM (active)
[4]
  IC50: 13.3 µM (active)
[5]
  IC50: 21.6 µM (active)

## CC1=C(C)C[S+]([O-])N(S(=O)(=O)c2ccc(Cl)cc2)C1 (configuration not stated)
[6]
  IC50: 5.57 µM (active)
[7]
  IC50: > 80 µM (inactive)
[8]
  IC50: 25.8 µM (inactive)
[9]
  IC50: > 93.1 µM (not active)
[10]
  IC50: 71.9 µM (active)
[11]
  IC50: > 50 µM (inactive)
[12]
  IC50: 18.1 µM (active)
[13]
  IC50: 30.9 µM (active)

## O=C1/C(=C\c2cc(Cl)c(O)c(Cl)c2)SC(=S)N1Cc1ccccc1
[14]
  EC50: 5.31 µM (active)
[15]
  IC50: > 59.6 µM (inactive)
[16]
  IC50: 3.15 µM (active)

## CN(C)S(=O)(=O)c1cc(NC(=O)CN2CCN(c3ccccc3)CC2)ccc1Cl
[17]
  EC50: 92.4 µM (inactive)
[18]
  EC50: 30.5 µM (inactive)

## Cc1ccc(-c2cc(-c3ccc(Cl)cc3)c(C#N)c(N)n2)o1
[19]
  IC50: 0.808 µM (active)
[20]
  IC50: 0.461 µM (active)
[21]
  IC50: > 64 µM (inactive)

## Clc1ccc2[nH]c3c(NCCCN4CCOCC4)ncnc3c2c1
[22]
  IC50: 14.3 µM (not active)
[23]
  IC50: 11.3 µM (inactive)
[24]
  AC50: 33.7 µM (active)
[25]
  IC50: 59.8 µM (inactive)
[26]
  IC50: 10.9 µM (not active)
[27]
  IC50: 9.1 µM (active)
